# Read-outs that look alike come from different tables or passages of the source.
# Target: human NK1R (Homo sapiens, UniProt P25103)
# Test: human NK1R assay: displacement of radiolabelled substance P binding
# Method: The substance P antagonizing activity of the compounds described herein was evaluated using the human NK1R assay described in published European patent application no. 0 528 495. The method essentially involves determining the concentration of the test compound required to reduce by 50% the amount of radiolabelled substance P binding to human NK1R, thereby affording an IC50 value for the test compound.
# [1] = radiolabelled substance P, assay as in EP 0 528 495, read-out: IC50 (concentration of the test compound required to reduce by 50% the amount of radiolabelled substance P binding to human NK1R)
# human NK1R, sequence (P25103 whole entry): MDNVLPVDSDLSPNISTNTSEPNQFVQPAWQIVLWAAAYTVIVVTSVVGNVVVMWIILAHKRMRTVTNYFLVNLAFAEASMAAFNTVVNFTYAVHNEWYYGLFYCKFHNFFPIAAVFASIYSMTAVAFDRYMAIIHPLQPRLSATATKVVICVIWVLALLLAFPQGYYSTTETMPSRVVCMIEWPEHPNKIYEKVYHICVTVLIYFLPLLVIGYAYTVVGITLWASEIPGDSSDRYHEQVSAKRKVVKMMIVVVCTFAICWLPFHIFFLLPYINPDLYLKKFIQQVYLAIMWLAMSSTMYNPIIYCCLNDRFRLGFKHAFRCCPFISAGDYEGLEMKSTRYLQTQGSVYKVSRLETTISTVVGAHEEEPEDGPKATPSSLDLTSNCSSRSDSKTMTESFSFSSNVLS
IC50 [1] [nM],Compound,IC50 [nM]
100,"NC(=O)CNC1(c2ccccc2)CCCCC1OCc1cc(C(F)(F)F)cc(C(F)(F)F)c1 (stereo not drawn) [Example 6, 1-(Bis-3,5-trifluoromethylbenzyoxy)-2-(carboxamido)methylamino-2-phenylcyclohexane]",–
350,"NC1(c2ccccc2)CCCCC1OCc1cc(C(F)(F)F)cc(C(F)(F)F)c1 (stereo not drawn) [Example 5, 1-(Bis-3,5-trifluoromethylbenzyoxy)-2-amino-2-phenylcyclohexane]",–
–,"Cc1cc(C)cc(COC2CCCCC2(N)c2ccccc2)c1 (stereo not drawn) [Example 1, 1-(3,5-Dimethylbenzyloxy)-2-amino-2-phenylcyclohexane]",100
